These results are taken from PMC11207335, “In Vitro Metabolism and Transport Characteristics of Zastaprazan” (Pharmaceutics, 2024).

Structures are written as SMILES.

Series [1] addresses T1, OAT3 (Homo sapiens, UniProt Q8TCC7).
T1 sequence (Q8TCC7 1-542): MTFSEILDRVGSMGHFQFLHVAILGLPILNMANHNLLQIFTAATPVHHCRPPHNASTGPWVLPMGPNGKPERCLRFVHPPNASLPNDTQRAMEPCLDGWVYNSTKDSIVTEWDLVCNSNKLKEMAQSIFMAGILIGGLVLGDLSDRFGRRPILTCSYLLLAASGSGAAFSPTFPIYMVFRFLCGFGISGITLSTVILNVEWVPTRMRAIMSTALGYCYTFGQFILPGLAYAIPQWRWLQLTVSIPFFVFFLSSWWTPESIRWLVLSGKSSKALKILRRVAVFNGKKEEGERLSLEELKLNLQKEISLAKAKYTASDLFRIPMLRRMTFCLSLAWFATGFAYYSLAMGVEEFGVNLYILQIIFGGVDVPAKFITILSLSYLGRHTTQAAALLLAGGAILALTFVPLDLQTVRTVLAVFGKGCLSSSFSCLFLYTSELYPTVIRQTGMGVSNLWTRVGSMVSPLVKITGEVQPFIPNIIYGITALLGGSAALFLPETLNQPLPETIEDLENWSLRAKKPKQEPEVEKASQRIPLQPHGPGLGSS
The series is described as follows: Uptake into HEK293 cells expressing OAT3. To be noted: for Uptake Rate / Fold-Change: 6 μM; for Fold-Change: vs HEK293-mock; for Substrate: OAT3.

Series [2] has as its target T2, MATE1 (Homo sapiens, UniProt Q96FL8).
T2 sequence (Q96FL8 1-570): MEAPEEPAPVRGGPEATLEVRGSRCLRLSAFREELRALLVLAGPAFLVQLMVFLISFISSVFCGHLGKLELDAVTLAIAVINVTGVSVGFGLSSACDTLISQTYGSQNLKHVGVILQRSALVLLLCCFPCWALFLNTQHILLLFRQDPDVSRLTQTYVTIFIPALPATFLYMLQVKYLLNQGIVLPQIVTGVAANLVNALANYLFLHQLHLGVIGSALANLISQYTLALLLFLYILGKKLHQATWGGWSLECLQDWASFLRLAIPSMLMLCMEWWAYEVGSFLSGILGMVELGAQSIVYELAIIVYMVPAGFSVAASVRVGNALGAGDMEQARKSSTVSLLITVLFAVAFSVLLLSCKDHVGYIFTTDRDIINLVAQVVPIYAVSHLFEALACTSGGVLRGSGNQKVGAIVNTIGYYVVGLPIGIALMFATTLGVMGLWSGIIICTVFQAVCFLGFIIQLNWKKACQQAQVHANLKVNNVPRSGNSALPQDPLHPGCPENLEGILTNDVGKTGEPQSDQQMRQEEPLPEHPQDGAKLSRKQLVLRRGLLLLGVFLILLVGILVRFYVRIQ
The series can be described thus: Uptake into HEK293 cells expressing MATE1. To be noted: for Uptake Rate / Fold-Change: 6 μM; for Fold-Change: vs HEK293-mock; for Substrate: MATE1.

Series [3] can be described thus: Apparent permeability in Caco-2 cells. It is filed as in vitro ADME. The conditions noted are these: human; for Papp A→B at 1 h, 4 µM / Papp B→A at 1 h, 4 µM: Caco-2, pH 7.4. How it is done: Caco-2 cells (passage no. 41–42) were grown in tissue culture flasks containing Dulbecco’s Modified Eagle Medium supplemented with 20% FBS, 1% nonessential amino acids, and 1% penicillin–streptomycin. […] The culture medium was replaced every other day. On the day of the experiment, the growth medium was discarded, and the attached cells were washed with prewarmed HBSS (pH 7.4) and preincubated with HBSS for 20 min at 37 °C. […] Aliquots (30 μL) of each sample were vortex-mixed with 90 μL of IS solution for 1 min, and then centrifugation was performed at 13,500 rpm at 4 °C for 5 min. Aliquots (5 μL) of the supernatant were injected into the LC-MS/MS for analysis.

Series [4] deals with T3, OCT1 (Homo sapiens, UniProt O15245).
T3 sequence (O15245 1-554): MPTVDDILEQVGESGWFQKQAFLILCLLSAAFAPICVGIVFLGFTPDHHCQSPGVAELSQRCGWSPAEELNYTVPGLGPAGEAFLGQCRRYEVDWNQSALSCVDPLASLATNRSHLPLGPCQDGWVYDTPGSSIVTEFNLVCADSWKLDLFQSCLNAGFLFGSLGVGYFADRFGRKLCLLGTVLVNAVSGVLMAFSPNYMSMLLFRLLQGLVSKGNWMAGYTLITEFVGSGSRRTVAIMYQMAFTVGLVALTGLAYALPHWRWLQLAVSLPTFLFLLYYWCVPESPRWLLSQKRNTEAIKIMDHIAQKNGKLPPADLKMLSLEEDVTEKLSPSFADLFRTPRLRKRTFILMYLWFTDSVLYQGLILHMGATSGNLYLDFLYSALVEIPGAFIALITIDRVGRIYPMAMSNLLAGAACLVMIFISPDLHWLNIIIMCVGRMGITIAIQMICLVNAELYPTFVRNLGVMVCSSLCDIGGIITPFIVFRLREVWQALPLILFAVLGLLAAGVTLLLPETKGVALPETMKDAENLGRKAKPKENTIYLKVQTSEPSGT
The series can be described thus: Uptake into HEK293 cells expressing OCT1. The conditions noted are these: for Uptake Rate / Fold-Change: 6 μM; for Fold-Change: vs HEK293-mock; for Substrate: OCT1.

Setting [5] is: HEK293-MATE1, cimetidine 100 μM.

Consider `Cc1cccc(CO)c1CNc1cc(C(=O)N2CCC2)cn2c(C)c(C)nc12` [M1, azetidin-1-yl(8-((2-(hydroxymethyl)-6-methyl-benzyl)amino)-2,3-dimethylimidazo[1,2-a]pyridin-6-yl)methanone], for which the “Uptake Rate” value in series [1] (HEK293-OAT3, control) was 58.53 ± 3.71 pmol/min/10^5 Cells; in series [1] (HEK293-OAT3, probenecid 20 μM) it was 52.47 ± 2.27 pmol/min/10^5 Cells; in series [2] (setting [5]) it was 78.57 ± 5.38 pmol/min/10^5 Cells; in series [2] (HEK293-MATE1, control), 65.32 ± 4.13 pmol/min/10^5 Cells; in series [4] (HEK293-OCT1, cimetidine 100 μM), 82.01 ± 3.72 pmol/min/10^5 Cells; in series [4] (HEK293-OCT1, control), 82.43 ± 3.59 pmol/min/10^5 Cells. Further, the Fold-Change in series [1] (HEK293-OAT3, control) is given as 1.1; in series [1] (HEK293-OAT3, probenecid 20 μM), 1.0; in series [2] (setting [5]), 1.5; in series [2] (HEK293-MATE1, control) it was 1.3; in series [4] (HEK293-OCT1, cimetidine 100 μM) it was 1.6; in series [4] (HEK293-OCT1, control), 1.6. The Substrate result in series [1], in series [2] and in series [4] was “No” in each case. The Papp A→B at 1 h, 4 µM in series [3] came to 3.36 ± 0.24 ×10⁻⁶ cm/s. In series [3], the Papp B→A at 1 h, 4 µM is 20.3 ± 1.51 ×10⁻⁶ cm/s. In addition, the efflux ratio at 1 h, 4 µM in series [3] (pH 7.4, Caco-2, mean Papp,BA / mean Papp,AB, read-out: ER) is 6.

Consider `Cc1cccc(C)c1CNc1cc(C(=O)N2CCC2)cn2c(C)c(C)nc12` [JP-1366, 1-azetidinyl(8-(((2,6-dimethylphenyl)methyl)amino)-2,3-dimethylimidazo(1,2-a)pyridin-6-yl)methanone], for which the “Uptake Rate” value in series [1] (HEK293-OAT3, control) is on record as 58.53 ± 3.71 pmol/min/10^5 Cells; in series [1] (HEK293-OAT3, probenecid 20 μM) it was 52.47 ± 2.27 pmol/min/10^5 Cells; in series [2] (setting [5]), 78.57 ± 5.38 pmol/min/10^5 Cells; in series [2] (HEK293-MATE1, control), 65.32 ± 4.13 pmol/min/10^5 Cells; in series [4] (HEK293-OCT1, cimetidine 100 μM) it was 82.01 ± 3.72 pmol/min/10^5 Cells; in series [4] (HEK293-OCT1, control), 82.43 ± 3.59 pmol/min/10^5 Cells. The Substrate entry in series [1], in series [2] and in series [4] was “No” in each case. Moreover, the Papp A→B at 1 h, 4 µM in series [3] was 23 ± 5.79 ×10⁻⁶ cm/s. Moreover, the Papp B→A at 1 h, 4 µM in series [3] was found to be 10.7 ± 1.77 ×10⁻⁶ cm/s.
